In US10272075B2, “Method and composition for treating an alpha adrenoceptor-mediated condition” (Vanda Pharmaceuticals, Inc., priority 2007, dated 2019):
Blank lines part the entries; values can stand above or below the molecule they belong to.

Columns and labels:
conscious rats = settings: i.v.; cited from earlier work
alpha1-adrenoceptors [1] = system: T1, alpha1-adrenoceptors; settings: rabbit isolated prostate; cited from earlier work
T1 construct: antagonist potency (pA2) estimated by the Schild plot; other: rabbit isolated prostate, vs PE, 0.1-3 uM, 60 min incubat; other: rabbit isolated prostate, vs PE, single concentration 0.01 μ; pKb; other: rabbit isolated prostate

[2] = system: human isolated prostatic adenoma; settings: human isolated prostatic adenoma obtained from BPH patients; cited from earlier work
anesthetized rats [3] = assay: PE-induced increase in intraurethral pressure (UP) and arterial blood pressure (BP) in anesthetized rats, oral administration; type: in vivo, rat; settings: for UP100% value (dose of PE increasing baseline UP by 100%), statistical significance / effect on BP, from BP10% to BP100%: 45 min; for effect on basal BP levels / effect on basal UP: oral; for effect on basal BP levels: 25 and 45 minutes after administration; for effect on basal UP: measured 25 or 45 minutes later
Description: An experiment was conducted to evaluate the antagonistic effect of 4-[3-[4-(6-fluoro-1,2,-benzisoxazol-3-yl)-1-piperidinyl]propoxy]-3-methoxy-benzoic acid on the PE-induced increase in intraurethral pressure (UP) and arterial blood pressure (BP) in anesthetized rats.

alpha1-adrenoceptors [4] = assay: phenylephrine (PE)-induced contraction in the prostatic smooth muscle of male rabbits (isolated strips, organ bath); set-up: species or system rabbit
Description: (§1) It is well established in the literature that the rabbit is a good model for the pharmacology of the lower urinary tract. In particular, a correlation was found between affinities for cloned alpha1a-adrenoceptors and antagonist potency (pKb) values for several alpha1-adrenoceptors antagonists in the rabbit isolated prostate (Martin et al., J. Pharmacol. Expr. Ther. 282: 228-35, 1997). Briefly, following animal sacrifice, transverse preparations of the prostate were suspended vertically in 25 mL glass organ baths under a loading tension of 1 g and placed in an oxygenated, modified Krebs solution (NaCl 114 mM, KCl 4.7 mM, CaCl2 2.5 mM, KH2PO4 1.2 mM, NaHCO3 25 mM, glucose 11.7 mM (pH 7.4, gassed with 95% O2 and 5% CO2 at 37° C.). Propranolol (1 μM), desipramine (0.1 μM), deoxycorticosterone (3 μM) and normetanephrine (1 μM) were added to the Krebs-Henseleit solution in order to block beta-adrenoceptors, neuronal and extraneuronal uptake and catechol-O-methyl transferase, respectively. After 60 min of equilibration, smooth muscle strips were exposed to 30 μM PE to measure their viability. Strips having low contractile responses (<0.5 g) were discarded. Following a 30 min washout period, a first concentration-response curve (CRC) to PE (in the range 0.1 μM-1 mM) was obtained by cumulative additions as half-log unit concentrations increments. Then, tissues were washed for 60 min and incubated for 60 min with the test substance (at four different concentrations) before a second PE CRC was obtained (in the range 0.1 μM-10 mM). Only one concentration for the test substance was tested on each single smooth muscle strip.

alpha1-adrenoceptors [5] = system: T1, alpha1-adrenoceptors; assay: as above; set-up: species or system rabbit; settings: rabbit isolated prostate, vs PE
Description: as §1

[6] = system: dopamine, histamine and serotonin receptors (other than 5HT2A); assay: receptor affinity/potency profile, dopamine, histamine and serotonin receptors; type: binding
[7] = DMPK studies in rats with [14C]-labelled compound, brain radioactivity; type: in vivo, rat; settings: rats treated with [14C] compound
Text: 4-[3-[4-(6-fluoro-1,2,-benzisoxazol-3-yl)-1-piperidinyl]propoxy]-3-methoxy-benzoic acid appears not to cross the blood-brain barrier. Specifically, in DMPK studies using rats treated with [14C] […] Therefore, 4-[3-[4-(6-fluoro-1,2,-benzisoxazol-3-yl)-1-piperidinyl]propoxy]-3-methoxy-benzoic acid is particularly useful in conditions that are not mediated, to a substantial degree, by receptors in the brain.

anesthetized rats [8] = assay: PE-induced increase in intra-urethral pressure (UP) in anesthetized rats, intravenous administration; type: in vivo, rat; settings: for effect on agonist (PE) effect on UP: PE dose range 10-300 ug/kg
Description: Briefly, catheters were inserted into the femoral vein of anesthetized male rats for drug administration and into the urethra through the bladder wall for measuring urethral pressure (UP). […] The different doses of PE (between 3 and 300 ug/kg in controls and up to 3000 ug/kg in treated animals) were administered intravenously under a volume of 1 mL/kg as a bolus with a 3 minute interval between each dose.

rats [9] = assay: bladder outlet obstruction-induced bladder dysfunction in rats, 1-week treatment; type: in vivo, rat; settings: for effect on bladder hypertrophy secondary to outlet obstruction / effect on cystometric parameters: 1-week treatment; for effect on cystometric parameters: bladder outlet obstruction rats
Description: In another experiment, the effect of a 1-week treatment with 4-[3-[4-(6-fluoro-1,2,-benzisoxazol-3-yl)-1-piperidinyl]propoxy]-3-methoxy-benzoic acid, tamulosin, and a common vehicle on bladder outlet obstruction-induced bladder dysfunction in rats was evaluated. […] However, this latter effect was exclusively observed at the lowest dose tested (1 mg/kg/day).

serotonin 5HT2A receptor = serotonin 5HT2A receptor (Homo sapiens, UniProt P28223); assay: receptor affinity/potency profile, serotonin 5HT2A receptor; type: binding
[10] = system: human alpha1-adrenoceptors expressed in the prostatic adenoma; assay: norepinephrine (NE)-induced contraction in prostatic adenoma from BPH patients (isolated strips, organ bath); settings: for effect on pEC50 of the second CRC to NE: 60 min incubation
Description: Briefly, human prostatic adenoma was obtained from 6 patients (mean age 71±5 years) undergoing transvesical adenomectomy of the prostate because of BPH. Prostatic strips were mounted in glass organ baths containing a modified Krebs-Henseleit solution (NaCl 114 mM, KCl 4.7 mM, CaCl2 2.5 mM, KH2PO4 1.2 mM, NaHCO3 25 mM, glucose 11.7 mM, ascorbic acid 1.1 mM (pH 7.4, gassed with 95% O2 and 5% CO2 at 37° C.) under 1.5 g tension. […] Strips having a contractile response <0.3 g were discarded. After washout and 60 min of re-equilibration to re-establish baseline tension, a first cumulative concentration-response curve to NE (in the range 0.1 μM-1 mM) was constructed until a plateau of contraction was reached. […] Only one concentration of antagonist was tested in a single strip. […] The quantity of DMSO in the organ baths was equal to 0.1%.

[11] = molecular target: T2, cloned human alpha1 D-adrenoceptor (Homo sapiens, UniProt P25100); assay: binding studies, cloned human alpha1D-adrenoceptor; settings: data communicated by Dr. Baroldi, Vanda Pharmaceuticals
T2 construct: expressed in transfected cells
T2 sequence (P25100 1-572): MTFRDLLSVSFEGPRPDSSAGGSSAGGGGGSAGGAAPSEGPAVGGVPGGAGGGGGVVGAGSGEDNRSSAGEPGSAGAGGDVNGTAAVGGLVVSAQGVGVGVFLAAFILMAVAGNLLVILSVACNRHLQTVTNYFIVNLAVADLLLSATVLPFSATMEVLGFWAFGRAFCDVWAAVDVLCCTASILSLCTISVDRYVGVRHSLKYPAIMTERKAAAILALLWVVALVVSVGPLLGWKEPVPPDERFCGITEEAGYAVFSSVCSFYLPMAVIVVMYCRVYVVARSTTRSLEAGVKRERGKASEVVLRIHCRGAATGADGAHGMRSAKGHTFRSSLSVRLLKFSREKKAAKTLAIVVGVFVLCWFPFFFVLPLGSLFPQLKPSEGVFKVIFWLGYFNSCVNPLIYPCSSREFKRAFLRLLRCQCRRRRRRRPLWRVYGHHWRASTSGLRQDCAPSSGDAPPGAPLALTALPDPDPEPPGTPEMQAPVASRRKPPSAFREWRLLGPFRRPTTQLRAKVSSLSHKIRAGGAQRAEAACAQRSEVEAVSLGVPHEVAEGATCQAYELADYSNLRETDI
Text: (§2) The pA2 of 4-[3-[4-(6-fluoro-1,2,-benzisoxazol-3-yl)-1-piperidinyl]propoxy]-3-methoxy-benzoic acid (7.50) is in accordance with the value previously found on the rabbit isolated prostate. […] Importantly, it is recognized that blockade of both alpha1A-and alpha1D-adrenoceptors is necessary for optimal clinical effect on BPH patients (Andersson K E, World J. Urol. 19: 390-96, 2002).

alpha 1 adrenoceptors = assay: receptor affinity/potency profile, alpha 1 adrenoceptors; type: binding
rat alpha1A-adrenoceptor = molecular target: T3, rat alpha1A-adrenoceptor (Rattus norvegicus, UniProt P43140); assay: binding studies, rat alpha1A-adrenoceptor; settings: data communicated by Dr. Baroldi, Vanda Pharmaceuticals
T3 sequence (P43140 1-466): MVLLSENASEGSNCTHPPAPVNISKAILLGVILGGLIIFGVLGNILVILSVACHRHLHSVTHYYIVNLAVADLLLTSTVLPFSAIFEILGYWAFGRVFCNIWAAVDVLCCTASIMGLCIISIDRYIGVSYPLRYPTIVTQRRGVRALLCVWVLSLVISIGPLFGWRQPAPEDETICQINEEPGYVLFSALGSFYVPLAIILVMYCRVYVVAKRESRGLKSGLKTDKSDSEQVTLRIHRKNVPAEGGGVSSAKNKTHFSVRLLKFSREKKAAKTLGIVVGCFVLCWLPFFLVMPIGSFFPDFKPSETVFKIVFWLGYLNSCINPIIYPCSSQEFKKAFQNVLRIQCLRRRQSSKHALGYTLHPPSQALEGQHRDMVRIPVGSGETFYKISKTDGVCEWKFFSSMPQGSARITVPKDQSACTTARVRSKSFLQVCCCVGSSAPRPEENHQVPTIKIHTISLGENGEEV
Text: as §2

rats [12] = settings: administered intraduodenally; cited from earlier work

Chain of serotonin 5HT2A receptor (P28223 whole entry): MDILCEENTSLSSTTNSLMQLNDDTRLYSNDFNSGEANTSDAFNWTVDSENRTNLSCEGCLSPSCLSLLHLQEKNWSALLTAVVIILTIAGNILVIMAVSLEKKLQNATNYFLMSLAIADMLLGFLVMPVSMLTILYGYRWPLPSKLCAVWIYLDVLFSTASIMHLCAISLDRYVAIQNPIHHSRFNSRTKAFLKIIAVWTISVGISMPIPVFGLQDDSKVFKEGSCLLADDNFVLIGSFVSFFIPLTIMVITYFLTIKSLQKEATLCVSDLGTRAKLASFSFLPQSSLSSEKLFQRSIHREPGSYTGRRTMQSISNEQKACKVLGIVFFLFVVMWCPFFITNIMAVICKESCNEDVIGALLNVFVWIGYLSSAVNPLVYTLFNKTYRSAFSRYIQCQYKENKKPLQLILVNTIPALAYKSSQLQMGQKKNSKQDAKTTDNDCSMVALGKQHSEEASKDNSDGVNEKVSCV

Compound: COc1cc2nc(N(C)CCCNC(=O)C3CCCO3)nc(N)c2cc1OC (centres unmarked) [alfuzosin]
- potency relative to tamsulosin (fold less potent) in decreasing basal urethral pressure (conscious rats): 10 fold
- pKb (alpha1-adrenoceptors [1]): 7.25
- pKb [2]: 7.78

Compound: COc1cc(C(=O)O)ccc1OCCCN1CCC(c2noc3cc(F)ccc23)CC1 [4-[3-[4-(6-fluoro-1,2,-benzisoxazol-3-yl)-1-piperidinyl]propoxy]-3-methoxy-benzoic acid]
- effect on PE-induced increase of basal UP (anesthetized rats [3]; 0.5 mg/kg p.o.): ineffective
- effect on PE-induced increase of basal UP (anesthetized rats [3]; 1.5 mg/kg p.o.): slight effect
- UP100% value (dose of PE increasing baseline UP by 100%), statistical significance (anesthetized rats [3]; 1.5 mg/kg p.o.): reached the level of statistical significance
- effect on BP, from BP10% to BP100% (anesthetized rats [3]; 1.5 mg/kg p.o.): significant
- effect on PE-induced increase of basal UP (anesthetized rats [3]; 4.5 mg/kg p.o.): slight effect
- UP100% value (dose of PE increasing baseline UP by 100%), statistical significance (anesthetized rats [3]; 4.5 mg/kg p.o.): not
- effect on BP, from BP10% to BP100% (anesthetized rats [3]; 4.5 mg/kg p.o.): no effect
- potency relative to tamsulosin (times less potent) on both UP and BP (anesthetized rats [3]; oral route, 1.5 mg/kg at 45 min equipotent with 0.3 mg/kg tamsulosin): about 5 times
- effect on basal BP levels (anesthetized rats [3]): significantly decreased
- effect on basal UP (anesthetized rats [3]): no effect
- effect on Emax of PE concentration-response curve (alpha1-adrenoceptors [4]): unaffected
- effect on PE-induced contractions (alpha1-adrenoceptors [4]; n=6 for each dose, 0.1-3 uM): concentration-dependently antagonized
- antagonist potency (pA2) estimated by the Schild plot (alpha1-adrenoceptors [5]; 0.1-3 uM, 60 min incubation): 7.47
- activity with respect to the dopamine, histamine and serotonin receptors (other than 5HT2A) [6]: very weak if any activity
- radioactivity concentrations in the brain (blood-brain barrier crossing) [7]: none of the animals had measurable radioactivity concentrations in the brain
- effect on delta UP (over baseline) induced by PE (anesthetized rats [8]; 10 ug/kg i.v., PE 100 ug/kg): statistically significant inhibitory effect
- effect on delta UP (over baseline) induced by PE (anesthetized rats [8]; 33.3 ug/kg i.v., PE 30-100 and 150 ug/kg): statistically significant inhibitory effect
- dose response curve to PE (urethral pressure) (anesthetized rats [8]; 10, 33.3 and 100 ug/kg i.v.): dose-dependently shifted to the right
- potency relative to tamsulosin (times less potent) (anesthetized rats [8]; intravenous route, anesthetized rats): approximately 10 times
- effect on agonist (PE) effect on UP (anesthetized rats [8]; test substance 100 ug/kg i.v.): statistically significant decrease
- effect on bladder hypertrophy secondary to outlet obstruction (rats [9]): devoid of effect
- effect on cystometric parameters (rats [9]): devoid of significant effect
- effect on amplitude of unstable contractions (rats [9]; exclusively at the lowest dose tested (1 mg/kg/day)): significantly decreased
- affinity and potency among receptors (serotonin 5HT2A receptor): greatest affinity and is most potent
- effect on Emax of NE concentration-response curve [10]: no effect
- effect on pEC50 of the second CRC to NE [10]: concentration-dependent shift
- potency relative to tamsulosin (times less potent) ([10]; human alpha1-adrenoceptors in prostatic adenoma): approximately 100 times
- pA2 estimated by the Schild Plot ([10]; human prostatic adenoma, vs NE, dose-ratios corrected by solvent group): 7.50
- IC50 [11]: 17.8 nM
- affinity/potency for alpha 1 adrenoceptors compared with alpha 2 adrenoreceptors (alpha 1 adrenoceptors): slightly greater affinity/potency
- affinity and potency among receptors (alpha 1 adrenoceptors; alpha 1 adrenoceptors): greatest affinity and is most potent
- IC50 (rat alpha1A-adrenoceptor): 11.5 nM

- pA2 calculated from the dose-ratio of pEC50 values (alpha1-adrenoceptors [5]; single concentration 0.01 μM): 10.21
- effect on pEC50 of the second CRC to NE [10]: induced a shift
Compound: CCOc1ccccc1OCCN[C@H](C)Cc1ccc(OC)c(S(N)(=O)=O)c1 [tamsulosin, reference compound]
- effect on basal BP levels (anesthetized rats [3]): significantly decreased
- effect on basal UP (anesthetized rats [3]): no effect
- pKb (alpha1-adrenoceptors [1]): 9.74
- effect on Emax of PE concentration-response curve (alpha1-adrenoceptors [4]): unaffected
- potency of tamsulosin relative to the test substance (times more potent) (alpha1-adrenoceptors [4]; rabbit preparation, based on similar PE pEC50 values): 300 times
- effect on agonist (PE) effect on UP (anesthetized rats [8]; tamsulosin 10 ug/kg): statistically significant decrease
- effect on bladder hypertrophy secondary to outlet obstruction (rats [9]): devoid of effect
- effect on cystometric parameters (rats [9]): completely ineffective
- effect on Emax of NE concentration-response curve [10]: no effect

Compound: C[C@H](Cc1cc2c(c(C(N)=O)c1)N(CCCO)CC2)NCCOc1ccccc1OCC(F)(F)F [silodosin]
- potency relative to tamsulosin (times less potent) on UP (rats [12]): 2.8 times
